Assays:
[1] = molecular target: T1, C-X-C chemokine receptor type 4 (Homo sapiens, UniProt P61073); assay: Binding affinity to CXCR4 (unknown origin)
[2] = system: Human immunodeficiency virus 1; assay: Anti-HIV activity against HIV-1 IIIB infected in MT-4 cells; format: functional, organism-based; conditions: Human immunodeficiency virus 1, IIIB, MT4
[3] = system: Human immunodeficiency virus 2; assay: Anti-HIV activity against HIV-2 ROD infected in MT-4 cells; format: functional, organism-based; conditions: Human immunodeficiency virus 2, ROD, MT4
[4] = molecular target: T1, C-X-C chemokine receptor type 4; assay: Inhibition of 12G5-PE binding to CXCR4 in human U266B1 cells assessed as cell viability incubated for 1 hr by DAPI staining based flow cytometric analysis

T1 sequence (P61073 whole entry): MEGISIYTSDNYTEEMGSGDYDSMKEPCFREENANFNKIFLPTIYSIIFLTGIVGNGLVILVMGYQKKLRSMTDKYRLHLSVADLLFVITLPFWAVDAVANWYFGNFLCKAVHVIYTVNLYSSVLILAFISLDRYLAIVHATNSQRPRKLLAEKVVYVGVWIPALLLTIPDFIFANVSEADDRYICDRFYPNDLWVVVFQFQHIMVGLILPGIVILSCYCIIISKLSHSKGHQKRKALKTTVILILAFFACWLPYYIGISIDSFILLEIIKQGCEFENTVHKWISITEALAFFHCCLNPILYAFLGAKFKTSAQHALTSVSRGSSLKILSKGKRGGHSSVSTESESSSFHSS

## NCc1cc(C(N)=O)ccc1CN(Cc1nc2ccccc2[nH]1)C1CCCc2cccnc21 (stereo not given)
[1]
  IC50: 10 nM

## C1CNCCNCCCNC(C2CNCCCNCCNCCCN2)CNC1 (stereo not given)
[2]
  IC50: 100 nM
[3]
  IC50: 100 nM

## O=C1OC2(c3ccc(O)cc3Oc3cc(O)ccc32)c2ccc(NC(=S)NCCCCN(Cc3nc4ccccc4[nH]3)C3CCCc4cccnc43)cc21 (stereo not given)
[4]
  IC50: 5620 nM

## COC(=O)C(=O)c1ccc(CN(Cc2nc3ccccc3[nH]2)C2CCCc3cccnc32)c(CN)c1 (stereo not given)
[1]
  IC50: 10 nM

From ChEMBL document CHEMBL6087423, “Grafting a chromophore on AMD070 analogues for CXCR4 bioimaging: Chemical synthesis and in vitro assessment of the inhibition properties of the CXCR4 receptor” (Bioorg Med Chem Lett, 2025)
